“Also recorded” adds a separate entry of the source.
Key:
MS patients = conditions: cited from earlier work
[1] = tested on: progressive multiple sclerosis patients; experiment: Clinical evaluation (EDSS, maximum walking distance, walking speed) after repeated intrathecal TCA applications; type: in vivo, human; conditions: for clinical benefit / functional recovery: not immediately responding patients
Description: Subjects. 25 MS patients (age: 50±1.64 [mean±SEM, years] were studied. The average MS duration was 14.02±1.71 [years]. The subjects included 14 women and 11 men. The subjects included 13 secondary progressive [8 women, 5 men] and 12 primary progressive [6 women, 6 men]). […] Design. TCA application was followed by a mandatory stay in bed for at least six hours in order to support and ease the diffusion of TCA in the CSF and the spinal cord. Lumbar puncture was performed with an atraumatic Sprotte needle. The preexisting immune system modulating drug therapy remained stable. Spasticity reducing therapy was not changed. Expanded Disability Status Score (EDSS) ratings, maximum walking distance, and walking speed assessments were performed at baseline and on each day after a 40 mg Triamcinolone acetonide (TCA) administration, dissolved in 10 ml saline, up to the fourth TCA application. Statistics. ANCOVA with repeated measures design were employed for this exploratory analysis of this pilot trial. Covariates were MS duration, MS types, sex and age as covariates. The post hoc analysis was done with the Tukey's multiple comparisons test against baseline. The statistical analysis was performed with GraphPad Prism 5 Software. […] Clinical evaluation was performed at baseline and on each day after a triamcinolone administration in 25 progressive multiple sclerosis patients. Before the TCA was administered to a patient, 1-2 ml aliquots of CSF were withdrawn. RGMa concentrations were determined before each triamcinolone application by western blot analysis with quantification. Dependent on the disease activity, the patients usually received 4-6 TCA applications.

RGMa = RGMa levels in cerebrospinal fluid by Western blot with densitometric quantification; type: in vivo, human
[2] = tested on: progressive multiple sclerosis patients; experiment: Side effects during TCA therapy; type: in vivo, human; conditions: all participants (25 MS patients)
Description: Design. TCA application was followed by a mandatory stay in bed for at least six hours in order to support and ease the diffusion of TCA in the CSF and the spinal cord. Lumbar puncture was performed with an atraumatic Sprotte needle. The preexisting immune system modulating drug therapy remained stable. Spasticity reducing therapy was not changed. Expanded Disability Status Score (EDSS) ratings, maximum walking distance, and walking speed assessments were performed at baseline and on each day after a 40 mg Triamcinolone acetonide (TCA) administration, dissolved in 10 ml saline, up to the fourth TCA application. […] Clinical evaluation was performed at baseline and on each day after a triamcinolone administration in 25 progressive multiple sclerosis patients. Before the TCA was administered to a patient, 1-2 ml aliquots of CSF were withdrawn. RGMa concentrations were determined before each triamcinolone application by western blot analysis with quantification. Dependent on the disease activity, the patients usually received 4-6 TCA applications.

[3] = treated MS patients, numerous TCA studies

CC1(C)O[C@@H]2C[C@H]3[C@@H]4CCC5=CC(=O)C=C[C@]5(C)[C@@]4(F)[C@@H](O)C[C@]3(C)[C@]2(C(=O)CO)O1 [TCA, triamcinolone acetonide]
CSF synthesis of free radicals (MS patients; patients with a distinct immediate enhancement of upper and lower limb function): Reduced
EDSS (Expanded Disability Status Score) (MS patients; [3]): decreased
walking distance (MS patients; [3]): increased
walking speed (MS patients; [3]): decreased
walking speed ([1]; 8 not immediately responding patients, F=0.021, ns, FIG. 4C): no significant change; also recorded: no improved
EDSS scores ([1]; 8 not immediately responding patients, F=1, ns, FIG. 4A): no significant change; also recorded: no improved
maximum walking distances ([1]; 8 not immediately responding patients, F=1.52, ns, FIG. 4B): no significant change; also recorded: no improved
walking speed ([1]; 17 immediate responders (3 wheel chair bound excluded), F=3.42, p<0.01, FIG. 3C): improved
walking speed ([1]; 17 immediate responders (3 wheel chair bound excluded), F=3.42, p<0.01, FIG. 3C, listed as Triamcinolone Acetonide): went up
walking speed ([1]; 17 immediate responders (3 wheel chair bound excluded), F=3.42, p<0.01, FIG. 3C, listed as triamcinolone): ameliorated
maximum walking distances ([1]; 17 immediate responders (3 wheel chair bound excluded), F=3.64, p=0.01, FIG. 3B): improved
maximum walking distances ([1]; 17 immediate responders (3 wheel chair bound excluded), F=3.64, p=0.01, FIG. 3B, listed as Triamcinolone Acetonide): increased
maximum walking distances ([1]; 17 immediate responders (3 wheel chair bound excluded), F=3.64, p=0.01, FIG. 3B, listed as triamcinolone): ameliorated
EDSS scores ([1]; 17 immediate responders, 40 mg TCA intrathecal, repeated, F=8.55, p<0.009, FIG. 3A): improved
EDSS scores ([1]; 17 immediate responders, 40 mg TCA intrathecal, repeated, F=8.55, p<0.009, FIG. 3A, listed as Triamcinolone Acetonide): went down
EDSS scores ([1]; 17 immediate responders, 40 mg TCA intrathecal, repeated, F=8.55, p<0.009, FIG. 3A, listed as triamcinolone): improved
patients reporting a delayed improvement within three weeks after the TCA applications ([1]; among the 8 not immediately responding patients): 6 patients
clinical benefit / functional recovery [1]: no functional recovery
clinical benefit / functional recovery ([1]; listed as triamcinolone): no prompt clinical benefit
patients improved following treatment ([1]; of 25 progressive MS patients): 17 patients
patients who did not immediately respond during the observation period ([1]; of 25 progressive MS patients): 8 patients
RGMa concentrations in CSF (RGMa; not immediately responding patients): no decrease
RGMa 40 kDa form level in CSF (RGMa; not immediately responding patients, F=0.84, ns, FIG. 7A): No significant changes
RGMa 30 kDa form level in CSF (RGMa; not immediately responding patients, F=2.98, ns, FIG. 7B): No significant changes
RGMa levels in CSF (all investigated fragments) (RGMa; responders): decreased
RGMa 40 kDa form level in CSF (RGMa; responders, F=9.12, p<0.0001, FIG. 5A): decline
RGMa 30 kDa form level in CSF (RGMa; responders, less pronounced than 40 kDa, F=3.82, p<0.05, FIG. 5B): decline
RGMa levels in CSF (all investigated fragments) (RGMa; responders, listed as Triamcinolone Acetonide): reduction
RGMa levels in CSF (all investigated fragments) (RGMa; responders, listed as triamcinolone): declined
serious side effects [2]: no serious side effects

— patent US20220018855A1, “RGMa Fragment Based Diagnostic Assay” (ABBVIE DEUTSCHLAND GMBH & CO. KG, priority 2014, published 2022)
